The results in this text go back to patent US11939340B2, “CDK inhibitors and their use as pharmaceuticals” (Prelude Therapeutics Incorporated, priority 2022, dated 2024).

For one assay, the target named is T1, CDK4/Cyclin D1 (Homo sapiens, UniProt P11802).
T1 construct: purchased ProQinase; host or cells: insect cell
As to the kind of experiment: CDK4/CyclinD1 Enzymatic Activity Assay (TR-FRET). The conditions noted are these: CDK4/CyclinD1 1 nM, ATP 2 mM, read-out: CDK4_D1 IC50. Type of assay: biochemical. As to the method: CDK4/CyclinD1 Enzymatic Activity Assay
The inhibitory activity of compounds was evaluated in vitro using TR-FRET assay with white 384-well low volume microplate (Greiner Bio-One). CDK4/Cyclin D1 catalyzed phosphorylation of peptide in the presence and absence of compounds was measured and used in IC50 determination. Recombinant protein complex CDK4/Cyclin D1, expressed from insect cell, was purchased from ProQinase. Testing compounds were dissolved in DMSO at 1 mM and tested in 9-dose IC50 mode. The reaction mixture was prepared by mixing CDK4/CyclinD1 (1 nM final), ULight-4E-BP1 (100 nM final, Perkinelmer, TRF0128-D), and ATP (2 mM final) in assay buffer (20 mM of HEPES pH 7.4, 1 mM of EGTA, 0.05% BSA, 0.005% Tween 20, and 1 mM TCEP). The compound of interest in DMSO was added to each well in 3-fold serial dilution by the dispenser (TECAN D300E) to make a 9.9 μL of reaction mixture. After 20 minutes preincubation at room temperature, 0.1 μL MgCl2 (10 mM final) was added to initiate the reaction. Following a 45 minute incubation at 37° C., the reaction was stopped by addition of 2 μL of quenching buffer consisting of Lance detection buffer (Perkinelmer CR97-100C), LANCE Ultra Europium-anti-P-4E-BP1 (Perkinelmer, TRF0216-D), EDTA, and incubated at room temperature for additional 60 minutes in dark. The reaction signal was measured by Envision multimode plate reader (PerkinElmer, 2102-0010). IC50 values were determined by fitting the data to the standard 4 parameters with Hill Slope using GraphPad Prism software.
For orientation: Time-resolved FRET reads energy transfer from a long-lived donor to a nearby acceptor.

The test system of the next assay is pRB in OVCAR3 cells. Nature of the assay: pRB ICW Assay in OVCAR3 Cells. The format is cell-based. The settings on record: Homo sapiens, OVCAR-3, incubated with compound for 2 hours, read-out: OVCAR3 p-RB ICW IC50. As to the method: pRB ICW Assay in OVCAR3 Cells
OVCAR3 cells were maintained in RPMI (Corning, Catalog #: 10-040-CV) supplemented with 10% v/v FBS (Gibco, Catalog #: 26140-079), 1% v/v Penicillin Streptomycin (Gibco, Catalog #15140-122.) OVCAR3 cells grown at log phase were trypsinized, counted, and resuspended in fresh medium to reach a final density of 6.7e4 cells/mL and 75 μL of culture were dispensed into a 384-well plate (Falcon, cat #353962) using a Multidrop Combi dispenser (Thermo Scientific). The next day, compounds were dispensed as a 9-point, ½ log serial dilution using a Tecan digital dispenser (D300e), and cells were incubated with compound for 2 hours in a humidified incubator at 37° C. A reference compound at a final concentration of 10 μM was used as a control for maximum inhibition. Each compound was tested in duplicates for each experiment. At the end of the incubation, 25 μL of 16% paraformaldehyde (Electron Microscopy, cat #15710) was slowly added to each well and the plate was incubated at room temperature (RT) for 30 minutes to fix cells. Cells were then permeabilized by incubating with 50 μL/well of wash buffer (lx PBS with 0.1% Triton X-100) 5×5 minutes, followed by 1 hour blocking with 30 μL/well of Odyssey blocking buffer (Li—COR, cat #927-40000), at RT. Anti-phosphor RB antibody (Cell signaling 8516S) was diluted 1:1000 in Odyssey blocking buffer and 20 μL was added to all wells and incubated overnight in 4° C. with gently rocking. The next day, cells were washed 5×5 min with 50 μL/well of wash buffer, followed with 1 hour incubation with secondary antibody and DRAQ5 diluted in Odyssey blocking buffer (1:500 dilution for secondary antibody and 1:2000 dilution for DRAQ5), 5×5 min washes, and one last wash with water. Plates were dried in 37° C. oven for 5 minutes and scanned using Li—COR Odyssey CLx imaging system to acquire intensities at 700 and 800 nm channels.

The next assay deals with CDK2/Cyclin E2 (Homo sapiens, UniProt P24941). As to the kind of experiment: CDK2/CyclinE2 Enzymatic Activity Assay (TR-FRET). The format is biochemical. The settings on record: CDK2/CyclinE2 1 nM, ATP 1 mM, read-out: CDK2_El IC50. On the procedure:
CDK2/CyclinE2 Enzymatic Activity Assay
The inhibitory activity of compounds was evaluated in vitro using TR-FRET assay with white 384-well low volume microplate (Greiner Bio-One). CDK2/Cyclin E2 catalyzed phosphorylation of peptide in the presence and absence of compounds was measured and used in IC50 determination. Recombinant protein complex CDK2/Cyclin E2, expressed from insect cell, was purchased from ProQinase. Testing compounds were dissolved in DMSO at 1 mM and tested in 9-dose IC50 mode. The reaction mixture was prepared by mixing CDK2/CyclinE2 (1 nM final), ULight-4E-BP1 (50 nM final, Perkinelmer, TRF0128-D), and ATP (1 mM final) in assay buffer (20 mM of HEPES pH 7.4, 1 mM of EGTA, 0.05% BSA, 0.005% Tween 20, and 1 mM TCEP). The compound of interest in DMSO was added to each well in 3-fold serial dilution by dispenser (TECAN D300E) to make a 9.9 μL of reaction mixture. After 20 minutes preincubation at room temperature, 0.1 μL MgCl2 (10 mM final) was added to initiate the reaction. Following a 45 minute incubation at 37° C., the reaction was stopped by addition of 2 μL of quenching buffer consisting of Lance detection buffer (Perkinelmer CR97-100C), LANCE Ultra Europium-anti-P-4E-BP1 (Perkinelmer, TRF0216-D), EDTA, and incubate at room temperature for additional 60 minutes in the dark. The reaction signal was measured by Envision multimode plate reader (PerkinElmer, 2102-0010). IC50 values were determined by fitting the data to the standard 4 parameters with Hill Slope using GraphPad Prism software.

Bounds are passed on as bounds.

T1 sequence (P11802 whole entry): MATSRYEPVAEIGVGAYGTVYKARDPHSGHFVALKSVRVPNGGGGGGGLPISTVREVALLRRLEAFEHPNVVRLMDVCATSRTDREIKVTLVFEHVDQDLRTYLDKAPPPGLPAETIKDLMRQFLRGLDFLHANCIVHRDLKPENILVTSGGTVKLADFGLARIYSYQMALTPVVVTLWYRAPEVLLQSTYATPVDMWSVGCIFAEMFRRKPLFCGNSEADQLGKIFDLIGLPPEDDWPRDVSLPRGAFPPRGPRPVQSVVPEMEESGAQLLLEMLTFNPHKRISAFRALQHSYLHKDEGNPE
T1 sequence (P24385 whole entry partner): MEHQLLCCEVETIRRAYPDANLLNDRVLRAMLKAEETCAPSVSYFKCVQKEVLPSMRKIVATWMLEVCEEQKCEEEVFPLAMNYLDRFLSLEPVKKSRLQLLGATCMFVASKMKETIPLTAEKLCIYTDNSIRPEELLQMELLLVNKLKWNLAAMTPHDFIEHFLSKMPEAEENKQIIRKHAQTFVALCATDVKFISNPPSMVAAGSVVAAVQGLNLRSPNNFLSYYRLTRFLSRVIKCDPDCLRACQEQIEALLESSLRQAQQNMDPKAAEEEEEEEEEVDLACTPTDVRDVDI

In the case of `CCC12CC(F)(F)CN1C(=O)c1cc(-c3nc(NC4CCN(S(=O)(=O)c5cnn(C)c5)CC4)ncc3C(F)(F)F)sc12` (stereo not drawn) [Example 35, 8a-Ethyl-7,7-difluoro-2-(2-((1-((1-methyl-1H-pyrazol-4-yl)sulfonyl)piperidin-4-yl)amino)-5-(trifluoromethyl)pyrimidin-4-yl)-6,7,8,8a-tetrahydro-4H-thieno[2,3-a]pyrrolizin-4-one], the IC50 at CDK4/Cyclin D1, with pRB in OVCAR3 cells and at CDK2/Cyclin E2 was no more than 100 nM throughout.

On to `CCC12CCCN1C(=O)c1cc(-c3nc(NC4CCN(S(=O)(=O)c5cnn(C)c5)CC4)ncc3C(F)(F)F)sc12` (stereo not drawn) [Example 37, 8a-Ethyl-2-(2-((1-((1-methyl-1H-pyrazol-4-yl)sulfonyl)piperidin-4-yl)amino)-5-(trifluoromethyl)pyrimidin-4-yl)-6,7,8,8a-tetrahydro-4H-thieno[2,3-a]pyrrolizin-4-one], for which the IC50 on CDK4/Cyclin D1, with pRB in OVCAR3 cells and on CDK2/Cyclin E2 was no more than 100 nM each time.

`CCC12CC(F)(F)CN1C(=O)c1cc(-c3nc(NC4CCN(S(C)(=O)=O)CC4)ncc3C(F)(F)F)sc12` (stereo not drawn) [Example 32, 8a-Ethyl-7,7-difluoro-2-(2-((1-(methylsulfonyl)piperidin-4-yl)amino)-5-(trifluoromethyl)pyrimidin-4-yl)-6,7,8,8a-tetrahydro-4H-thieno[2,3-a]pyrrolizin-4-one]: the IC50 on CDK4/Cyclin D1, in the assay on pRB in OVCAR3 cells and on CDK2/Cyclin E2 was no more than 100 nM in each case.

Consider `CCC12CC(NC)CN1C(=O)c1cc(-c3nc(N[C@H]4CCN(S(C)(=O)=O)C[C@H]4F)ncc3C(F)(F)F)sc12` (stereo partly drawn) [Example 48, 8a-Ethyl-2-(2-(((3R,4S)-3-fluoro-1-(methylsulfonyl)piperidin-4-yl)amino)-5-(trifluoromethyl)pyrimidin-4-yl)-7-(methylamino)-6,7,8,8a-tetrahydro-4H-thieno[2,3-a]pyrrolizin-4-one], for which the IC50 at CDK4/Cyclin D1, with pRB in OVCAR3 cells and on CDK2/Cyclin E2 was no more than 100 nM throughout.

Take `COC1CN2C(=O)c3cc(-c4nc(NC5CCN(S(C)(=O)=O)CC5)ncc4C(F)(F)F)sc3C2(C(C)C)C1` (stereo not drawn) [Example 30, 8a-Isopropyl-7-methoxy-2-(2-((1-(methylsulfonyl)piperidin-4-yl)amino)-5-(trifluoromethyl)pyrimidin-4-yl)-6,7,8,8a-tetrahydro-4H-thieno[2,3-a]pyrrolizin-4-one]: the values for the IC50 at CDK4/Cyclin D1, in the assay with pRB in OVCAR3 cells and on CDK2/Cyclin E2 were no more than 100 nM, 100 to 500 nM and no more than 100 nM, respectively.

Regarding `CCC12CC(NC)CN1C(=O)c1cc(-c3nc(NC4CCN(S(C)(=O)=O)CC4)ncc3C(F)(F)F)sc12` (stereo not drawn) [Example 38, 8a-Ethyl-7-(methylamino)-2-(2-((1-(methylsulfonyl)piperidin-4-yl)amino)-5-(trifluoromethyl)pyrimidin-4-yl)-6,7,8,8a-tetrahydro-4H-thieno[2,3-a]pyrrolizin-4-one], the concentration for half-maximal inhibition (IC50) on CDK4/Cyclin D1, in the assay with pRB in OVCAR3 cells and on CDK2/Cyclin E2 was no more than 100 nM each time.

With `CC12CCCCN1C(=O)c1cc(-c3nc(NC4CCN(S(C)(=O)=O)CC4)ncc3F)sc12` (stereo not drawn) [Example 6, 2-(5-Fluoro-2-((1-(methylsulfonyl)piperidin-4-yl)amino)pyrimidin-4-yl)-9a-methyl-7,8,9,9a-tetrahydrothieno[2,3-a]indolizin-4(6H)-one], the IC50 on CDK4/Cyclin D1, in the assay on pRB in OVCAR3 cells and on CDK2/Cyclin E2 was no more than 100 nM each time.

Turning to `CCC12CCCN1C(=O)c1cc(-c3nc(NC4CCN(S(C)(=O)=O)CC4)ncc3C)sc12` (stereo not drawn) [Example 16, 8a-Ethyl-2-[5-methyl-2-[(1-methylsulfonylpiperidin-4-yl)amino]pyrimidin-4-yl]-7,8-dihydro-6H-thieno[2,3-a]pyrrolizin-4-one], the 50% inhibitory concentration (IC50) on CDK4/Cyclin D1, in the assay with pRB in OVCAR3 cells and at CDK2/Cyclin E2 was no more than 100 nM throughout.

On to `CS(=O)(=O)N1CCC(Nc2ncc(C(F)(F)F)c(-c3cc4c(s3)C3CCCN3C4=O)n2)CC1` (stereo not drawn) [Example 21, 2-(2-((1-(Methylsulfonyl)piperidin-4-yl)amino)-5-(trifluoromethyl)pyrimidin-4-yl)-6,7,8,8a-tetrahydro-4H-thieno[2,3-a]pyrrolizin-4-one], for which the values for the IC50 at CDK4/Cyclin D1, with pRB in OVCAR3 cells and on CDK2/Cyclin E2 were no more than 100 nM, 100 to 500 nM and no more than 100 nM, respectively.

Regarding `CCC12CC(NC)CN1C(=O)c1cc(-c3nc(N[C@@H]4CCN(S(C)(=O)=O)C[C@H]4F)ncc3C(F)(F)F)sc12` (stereo partly drawn) [Example 47, 8a-Ethyl-2-(2-(((3R,4R)-3-fluoro-1-(methylsulfonyl)piperidin-4-yl)amino)-5-(trifluoromethyl)pyrimidin-4-yl)-7-(methylamino)-6,7,8,8a-tetrahydro-4H-thieno[2,3-a]pyrrolizin-4-one], the IC50 on CDK4/Cyclin D1, in the assay on pRB in OVCAR3 cells and on CDK2/Cyclin E2 was no more than 100 nM throughout.

Turning to `CC(C)C12CC(CO)CN1C(=O)c1cc(-c3nc(NC4CCN(S(C)(=O)=O)CC4)ncc3C(F)(F)F)sc12` (stereo not drawn) [Example 31, 7-(Hydroxymethyl)-8a-isopropyl-2-(2-((1-(methylsulfonyl)piperidin-4-yl)amino)-5-(trifluoromethyl)pyrimidin-4-yl)-6,7,8,8a-tetrahydro-4H-thieno[2,3-a]pyrrolizin-4-one], the IC50 on CDK4/Cyclin D1, with pRB in OVCAR3 cells and on CDK2/Cyclin E2 was no more than 100 nM in each case.

Consider `CC(C)C12CCCN1C(=O)c1cc(-c3nc(NC4CCN(S(C)(=O)=O)CC4)ncc3C(F)(F)F)sc12` (stereo not drawn) [Example 11, 8a-Isopropyl-2-(2-((1-(methylsulfonyl)piperidin-4-yl)amino)-5-(trifluoro-methyl)pyrimidin-4-yl)-6,7,8,8a-tetrahydro-4H-thieno[2,3-a]pyrrolizin-4-one], for which the IC50 at CDK4/Cyclin D1 was no more than 100 nM; in the assay on pRB in OVCAR3 cells it was 100 to 500 nM; at CDK2/Cyclin E2 it was no more than 100 nM.

Regarding `CCC12CC(C)(O)CN1C(=O)c1cc(-c3nc(NC4CCN(S(C)(=O)=O)CC4)ncc3C(F)(F)F)sc12` (stereo not drawn) [Example 34, 8a-Ethyl-7-hydroxy-7-methyl-2-(2-((1-(methylsulfonyl)piperidin-4-yl)amino)-5-(trifluoromethyl)pyrimidin-4-yl)-6,7,8,8a-tetrahydro-4H-thieno[2,3-a]pyrrolizin-4-one], the IC50 at CDK4/Cyclin D1, in the assay with pRB in OVCAR3 cells and at CDK2/Cyclin E2 was no more than 100 nM in each case.

What is called IC50 is the concentration that gives 50% inhibition.
